pIC50: −log10 of the molar value.
Tests used:
[1] = Antiproliferative activity against human SPCA1 cells expressing wild type EGFR assessed as reduction in cell viability after 72 hrs by MTT assay; type: functional, cell-based; settings: SPCA1, 72 h
[2] = Toxicity in nude BALB/c mouse xenografted with C26 cells assessed as abnormalities in liver size and morphology at 50 mg/kg, po administered once daily; type: organism-based; settings: in vivo
[3] = Toxicity in nude BALB/c mouse xenografted with C26 cells assessed as change in body weight at 50 mg/kg, po administered once daily and measured every two days; type: organism-based; settings: in vivo
[4] = Toxicity in nude BALB/c mouse xenografted with C26 cells assessed as abnormalities in heart size and morphology at 50 mg/kg, po administered once daily; type: organism-based; settings: in vivo
[5] = Metabolic stability in human liver microsomes assessed as intrinsic clearance per gram protein; type: ADME, Microsome
NCI-H441 = assay: Antiproliferative activity against human NCI-H441 cells […] assessed as reduction in cell viability after 72 hrs by MTT assay; type: functional, cell-based; settings: NCI-H441, 72 h
NCI-H1975 = assay: Antiproliferative activity against human NCI-H1975 cells assessed as reduction in cell viability after 72 hrs by MTT assay; type: functional, cell-based; settings: NCI-H1975, 72 h
L929 = assay: Cytotoxicity against mouse L929 cells; type: cell-based
NCI-H460 [6] = assay: Antiproliferative activity against human NCI-H460 cells assessed as reduction in cell viability after 72 hrs by MTT assay; type: functional, cell-based; settings: NCI-H460, 72 h
NCI-H1650 = assay: Antiproliferative activity against human NCI-H1650 cells expressing EGFR mutant assessed as reduction in cell viability after 72 hrs by MTT assay; type: functional, cell-based; settings: NCI-H1650, 72 h
[7] = Toxicity in nude BALB/c mouse xenografted with C26 cells assessed as abnormalities in lung size and morphology at 50 mg/kg, po administered once daily; type: organism-based; settings: in vivo
[8] = Antitumor activity against mouse C26 cells xenografted in BALB/c mouse assessed as tumor growth inhibition at 50 mg/kg, po administered once daily and measured every two days by caliper method relative to control; type: functional; settings: 48 h, read-out: TGI
[9] = Metabolic stability in human liver microsomes assessed as half life; type: ADME, Microsome
A549 = assay: Antiproliferative activity against human A549 cells expressing wild type EGFR assessed as reduction in cell viability after 72 hrs by MTT assay; type: functional, cell-based; settings: A549, 72 h
[10] = Toxicity in nude BALB/c mouse xenografted with C26 cells assessed as abnormalities in kidney size and morphology at 50 mg/kg, po administered once daily; type: organism-based; settings: in vivo
[11] = Toxicity in nude BALB/c mouse xenografted with C26 cells assessed as body weight loss at 60 mg/kg, po administered once daily and measured every two days; type: organism-based; settings: in vivo
HCC827 = assay: Antiproliferative activity against human HCC827 cells assessed as reduction in cell viability after 72 hrs by MTT assay; type: functional, cell-based; settings: HCC827, 72 h
NCI-H460 [12] = assay: Antitumor activity against human NCI-H460 cells xenografted in nude BABL/c mouse assessed as tumor growth inhibition at 10 mg/kg, po administered once daily and measured every two days by caliper method relative to control; type: functional; settings: 48 h, read-out: TGI
NCI-H460 [13] = assay: Antitumor activity against human NCI-H460 cells xenografted in nude BABL/c mouse assessed as tumor growth inhibition at 60 mg/kg, po administered once daily and measured every two days by caliper method relative to control; type: functional; settings: 48 h, read-out: TGI
NCI-H460 [14] = assay: Induction of cell cycle arrest in human NCI-H460 cells assessed as accumulation at S phase at 10 uM incubated for 24 hrs by propidium iodide staining based flow cytometry (reference value: 29.32 %); type: functional
NCI-H460 [15] = assay: Induction of apoptosis in human NCI-H460 cells assessed as late apoptotic cells at 10 uM after 48 hrs by Annexin V-FITC/propidium iodide staining based flow cytometric analysis (reference value: 3.995 %); type: functional
NCI-H460 [16] = assay: Induction of apoptosis in human NCI-H460 cells assessed as early apoptotic cells at 2 uM after 48 hrs by Annexin V-FITC/propidium iodide staining based flow cytometric analysis (reference value: 3.980 %); type: functional
NCI-H460 [17] = assay: Induction of apoptosis in human NCI-H460 cells assessed as late apoptotic cells at 1 uM after 48 hrs by Annexin V-FITC/propidium iodide staining based flow cytometric analysis (reference value: 3.995 %); type: functional
NCI-H460 [18] = assay: Induction of apoptosis in human NCI-H460 cells assessed as viable cells at 10 uM after 48 hrs by Annexin V-FITC/propidium iodide staining based flow cytometric analysis (reference value: 91.528 %); type: functional; settings: read-out: Activity
NCI-H460 [19] = assay: Induction of apoptosis in human NCI-H460 cells assessed as necrotic cells at 5 uM after 48 hrs by Annexin V-FITC/propidium iodide staining based flow cytometric analysis (reference value: 0.498 %); type: functional
NCI-H460 [20] = assay: Induction of apoptosis in human NCI-H460 cells assessed as necrotic cells at 10 uM after 48 hrs by Annexin V-FITC/propidium iodide staining based flow cytometric analysis (reference value: 0.498 %); type: functional
NCI-H460 [21] = assay: Induction of apoptosis in human NCI-H460 cells assessed as necrotic cells at 2 uM after 48 hrs by Annexin V-FITC/propidium iodide staining based flow cytometric analysis (reference value: 0.498 %); type: functional
NCI-H460 [22] = assay: Induction of apoptosis in human NCI-H460 cells assessed as viable cells at 5 uM after 48 hrs by Annexin V-FITC/propidium iodide staining based flow cytometric analysis (reference value: 91.528 %); type: functional; settings: read-out: Activity
NCI-H460 [23] = assay: Induction of cell cycle arrest in human NCI-H460 cells assessed as accumulation at G2/M phase at 1 uM incubated for 24 hrs by propidium iodide staining based flow cytometry (reference value: 16.71 %); type: functional
NCI-H460 [24] = assay: Induction of apoptosis in human NCI-H460 cells assessed as early apoptotic cells at 5 uM after 48 hrs by Annexin V-FITC/propidium iodide staining based flow cytometric analysis (reference value: 3.980 %); type: functional
NCI-H460 [25] = assay: Induction of cell cycle arrest in human NCI-H460 cells assessed as accumulation at G2/M phase at 10 uM incubated for 24 hrs by propidium iodide staining based flow cytometry (reference value: 16.71 %); type: functional
NCI-H460 [26] = assay: Induction of apoptosis in human NCI-H460 cells assessed as viable cells at 1 uM after 48 hrs by Annexin V-FITC/propidium iodide staining based flow cytometric analysis (reference value: 91.528 %); type: functional; settings: read-out: Activity
NCI-H460 [27] = assay: Induction of apoptosis in human NCI-H460 cells assessed as early apoptotic cells at 1 uM after 48 hrs by Annexin V-FITC/propidium iodide staining based flow cytometric analysis (reference value: 3.980 %); type: functional
NCI-H460 [28] = assay: Induction of cell cycle arrest in human NCI-H460 cells assessed as accumulation at G0/G1 phase at 1 uM incubated for 24 hrs by propidium iodide staining based flow cytometry (reference value: 53.97 %); type: functional
NCI-H460 [29] = assay: Induction of apoptosis in human NCI-H460 cells assessed as late apoptotic cells at 5 uM after 48 hrs by Annexin V-FITC/propidium iodide staining based flow cytometric analysis (reference value: 3.995 %); type: functional
NCI-H460 [30] = assay: Induction of apoptosis in human NCI-H460 cells assessed as viable cells at 2 uM after 48 hrs by Annexin V-FITC/propidium iodide staining based flow cytometric analysis (reference value: 91.528 %); type: functional; settings: read-out: Activity
NCI-H460 [31] = assay: Induction of cell cycle arrest in human NCI-H460 cells assessed as accumulation at G0/G1 phase at 5 uM incubated for 24 hrs by propidium iodide staining based flow cytometry (reference value: 53.97 %); type: functional
NCI-H460 [32] = assay: Induction of apoptosis in human NCI-H460 cells assessed as early apoptotic cells at 10 uM after 48 hrs by Annexin V-FITC/propidium iodide staining based flow cytometric analysis (reference value: 3.980 %); type: functional
NCI-H460 [33] = assay: Induction of apoptosis in human NCI-H460 cells assessed as late apoptotic cells at 2 uM after 48 hrs by Annexin V-FITC/propidium iodide staining based flow cytometric analysis (reference value: 3.995 %); type: functional
NCI-H460 [34] = assay: Induction of cell cycle arrest in human NCI-H460 cells assessed as accumulation at S phase at 5 uM incubated for 24 hrs by propidium iodide staining based flow cytometry (reference value: 29.32 %); type: functional
NCI-H460 [35] = assay: Induction of cell cycle arrest in human NCI-H460 cells assessed as accumulation at S phase at 1 uM incubated for 24 hrs by propidium iodide staining based flow cytometry (reference value: 29.32 %); type: functional
NCI-H460 [36] = assay: Induction of cell cycle arrest in human NCI-H460 cells assessed as accumulation at G2/M phase at 5 uM incubated for 24 hrs by propidium iodide staining based flow cytometry (reference value: 16.71 %); type: functional
NCI-H460 [37] = assay: Induction of cell cycle arrest in human NCI-H460 cells assessed as accumulation at G0/G1 phase at 10 uM incubated for 24 hrs by propidium iodide staining based flow cytometry (reference value: 53.97 %); type: functional
NCI-H460 [38] = assay: Induction of apoptosis in human NCI-H460 cells assessed as necrotic cells at 1 uM after 48 hrs by Annexin V-FITC/propidium iodide staining based flow cytometric analysis (reference value: 0.498 %); type: functional

## C=CCc1ccc(OCC)c(-c2cc(CC=C)cc(CN3CCC(NC(=O)[C@@H](N)Cc4ccccc4)CC3)c2O)c1
[1]
  pIC50: 5.71
[2]
  Activity: Non-Toxic
[3]
  Activity: Toxic
[4]
  Activity: Non-Toxic
[5]
  CLint: 56.4 mL/min/g
NCI-H441
  pIC50: 5.67
NCI-H1975
  pIC50: 5.84
L929
  pIC50: 5.20
NCI-H460 [6]
  pIC50: 5.95
NCI-H1650
  pIC50: 5.63
[7]
  Activity: Non-Toxic
[8]
  inhibition in vivo at 50 mg/kg: 57.4%
[9]
  half-life: 24.6 min
A549
  pIC50: 5.70
[10]
  Activity: Non-Toxic
[11]
  Activity: Toxic
HCC827
  pIC50: 6.09

## CCN(CC)CCCC(C)Nc1ccnc2cc(Cl)ccc12 (stereo not given) [CHLOROQUINE PHOSPHATE]
NCI-H460 [12]
  inhibition in vivo at 10 mg/kg: 8.67%

## C=CCc1ccc(OC(C)C)c(-c2cc(CC=C)cc(CN3CCC(NC(=O)[C@@H](N)Cc4ccccc4)CC3)c2O)c1
[1]
  pIC50: 5.87
[2]
  Activity: Non-Toxic
[3]
  Activity: Toxic
[4]
  Activity: Non-Toxic
[5]
  CLint: 63.8 mL/min/g
NCI-H441
  pIC50: 5.69
NCI-H1975
  pIC50: 5.56
L929
  pIC50: 5.20
NCI-H460 [6]
  pIC50: 5.88
NCI-H1650
  pIC50: 5.77
[7]
  Activity: Non-Toxic
[8]
  inhibition in vivo at 50 mg/kg: 62.4%
[9]
  half-life: 21.7 min
A549
  pIC50: 5.91
[10]
  Activity: Non-Toxic
HCC827
  pIC50: 6.07

## C=CCc1ccc(O)c(-c2cc(CC=C)ccc2O)c1 [MAGNOLOL]
[1]
  pIC50: 4.03
[5]
  CLint: 94 mL/min/g
NCI-H441
  pIC50: 4.18
NCI-H1975
  pIC50: 4.06
NCI-H460 [6]
  pIC50: 4.02
NCI-H1650
  pIC50: 4.18
[9]
  half-life: 14.7 min
A549
  pIC50: 4.08
HCC827
  pIC50: 4.02

## C=CCc1ccc(OCC)c(-c2cc(CC=C)cc(CN3CCC(N)CC3)c2O)c1
[1]
  pIC50: 5.46
[5]
  CLint: 10.7 mL/min/g
NCI-H441
  pIC50: 5.53
NCI-H1975
  pIC50: 5.84
L929
  pIC50: 5.75
NCI-H460 [6]
  pIC50: 5.90
NCI-H1650
  pIC50: 5.38
[9]
  half-life: 130 min
A549
  pIC50: 5.52
HCC827
  pIC50: 6.03

## C=CCc1ccc(O)c(-c2cc(CC=C)cc(CN3CCC(N)CC3)c2O)c1
[1]
  pIC50: 5.02
NCI-H460 [13]
  inhibition in vivo at 60 mg/kg: 45.2%
NCI-H460 [14]
  Activity: 19.19%
NCI-H460 [15]
  Activity: 7.246%
NCI-H460 [16]
  Activity: 6.067%
NCI-H460 [17]
  Activity: 4.207%
NCI-H460 [18]
  viability at 10 µM: 73.4%
NCI-H460 [19]
  Activity: 0.51%
NCI-H460 [20]
  Activity: 0.173%
[5]
  CLint: 11 mL/min/g
NCI-H460 [21]
  Activity: 1.301%
NCI-H460 [22]
  viability at 5 µM: 86.9%
NCI-H460 [23]
  Activity: 22.68%
NCI-H460 [24]
  Activity: 6.82%
NCI-H460 [25]
  Activity: 15.16%
NCI-H460 [26]
  viability at 1 µM: 88.8%
NCI-H441
  pIC50: 5.15
NCI-H1975
  pIC50: 5.06
L929
  pIC50: 6.08
NCI-H460 [27]
  Activity: 6.017%
NCI-H460 [28]
  Activity: 55%
NCI-H460 [29]
  Activity: 5.72%
NCI-H460 [6]
  pIC50: 5.03
NCI-H1650
  pIC50: 5.19
NCI-H460 [30]
  viability at 2 µM: 87.6%
[8]
  inhibition in vivo at 50 mg/kg: 45.5%
NCI-H460 [31]
  Activity: 58.76%
NCI-H460 [32]
  Activity: 19.124%
NCI-H460 [33]
  Activity: 5.012%
NCI-H460 [34]
  Activity: 22.74%
NCI-H460 [35]
  Activity: 22.32%
[9]
  half-life: 126 min
A549
  pIC50: 5.08
NCI-H460 [36]
  Activity: 18.49%
HCC827
  pIC50: 4.97
NCI-H460 [37]
  Activity: 65.66%
NCI-H460 [38]
  Activity: 0.931%
